Results: PubChem BioAssay AID2060498 (Molecular Pharmacology Branch, DTP, NCI, 2025)

Tested on: 171881-019-R-J1-PDC tumor spheroids, viability
Experiment: Anticancer human tumor 171881-019-R-J1-PDC patient-derived invasive breast carcinoma cell line growth inhibition [GQUAD]
Conditions: spheroids with HUVEC and MSC; for IC50: curve of first compound; for viability, T/C: stronger effect = lower value; active means viability on the fitted dose curve at most 10% of control; inactive means the rest
Procedure, shortened: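 Tumor cells were grown as complex spheroids with HUVEC endothelial cells and mesenchymal stem cells as stroma. G-quadruplex stabilizers were combined with targeted agents over half-log dilutions from near the clinical Cmax, or from 10 microM.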

[1] = second compound 0.0316 µM, first compound 0.0316 µM
[2] = second compound 0.0316 µM, first compound 0.1 µM
[3] = second compound 0.0316 µM, first compound 0.316 µM
[4] = second compound 0.0316 µM, first compound 1 µM
[5] = second compound 0.0316 µM, first compound 3.16 µM
[6] = second compound 0.0316 µM, first compound 10 µM
[7] = second compound 0.1 µM, first compound 0.0316 µM
[8] = second compound 0.1 µM, first compound 0.1 µM
[9] = second compound 0.1 µM, first compound 0.316 µM
[10] = second compound 0.1 µM, first compound 1 µM
[11] = second compound 0.1 µM, first compound 3.16 µM
[12] = second compound 0.1 µM, first compound 10 µM
[13] = second compound 0.316 µM, first compound 0.0316 µM
[14] = second compound 0.316 µM, first compound 0.1 µM
[15] = second compound 0.316 µM, first compound 0.316 µM
[16] = second compound 0.316 µM, first compound 1 µM
[17] = second compound 0.316 µM, first compound 3.16 µM
[18] = second compound 0.316 µM, first compound 10 µM
[19] = second compound 1 µM, first compound 0.0316 µM
[20] = second compound 1 µM, first compound 0.1 µM
[21] = second compound 1 µM, first compound 0.316 µM
[22] = second compound 1 µM, first compound 1 µM
[23] = second compound 1 µM, first compound 3.16 µM
[24] = second compound 1 µM, first compound 10 µM
[25] = second compound 3.16 µM, first compound 0.0316 µM
[26] = second compound 3.16 µM, first compound 0.1 µM
[27] = second compound 3.16 µM, first compound 0.316 µM
[28] = second compound 3.16 µM, first compound 1 µM
[29] = second compound 3.16 µM, first compound 3.16 µM
[30] = second compound 3.16 µM, first compound 10 µM
[31] = second compound 10 µM, first compound 0.0316 µM
[32] = second compound 10 µM, first compound 0.1 µM
[33] = second compound 10 µM, first compound 0.316 µM
[34] = second compound 10 µM, first compound 1 µM
[35] = second compound 10 µM, first compound 3.16 µM
[36] = second compound 10 µM, first compound 10 µM
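Further: spheroids exposed to compounds for 7 days.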
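Wherever viability, T/C is given: 100% = DMSO vehicle control viability.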

COc1ccc([C@@H](O)c2cc(-c3ncnc4cc(N5CCOCC5)ccc34)c(F)cc2Cl)nn1 + Cc1[nH]c2ccc(F)cc2c1-c1nc2c3cccnc3c3ncccc3c2[nH]1
740 nM: IC50 (second compound 0.0316 µM)
573 nM: IC50 (second compound 0.316 µM)
inactive: viability, T/C [1] 107% | viability, T/C [2] 81.3% | viability, T/C [3] 74.5% | viability, T/C [4] 45% | viability, T/C [5] 14.7% | viability, T/C [7] 87.2% | viability, T/C [8] 84.5% | viability, T/C [9] 70.1% | viability, T/C [10] 44.6% | viability, T/C [11] 14% | viability, T/C [13] 85.6% | viability, T/C [14] 90.2% | viability, T/C [15] 56.5% | viability, T/C [16] 41% | viability, T/C [17] 15.5% | viability, T/C [19] 94.2% | viability, T/C [20] 67% | viability, T/C [21] 64.4% | viability, T/C [22] 32.3% | viability, T/C [23] 12.2% | viability, T/C [25] 28.9% | viability, T/C [26] 15.3% | viability, T/C [27] 14.5% | viability, T/C [31] 37.8% | viability, T/C [32] 45.4% | viability, T/C [33] 26.6% | viability, T/C [34] 17.3%
756 nM: IC50 (second compound 0.1 µM)
< 31.6 nM: IC50 (second compound 3.16 µM) | IC50 (second compound 10 µM)
429 nM: IC50 (second compound 1 µM)
active: viability, T/C [6] 5.38% | viability, T/C [12] 5.6% | viability, T/C [18] 5.95% | viability, T/C [24] 6.67% | viability, T/C [28] 9.07% | viability, T/C [29] 8.31% | viability, T/C [30] 4.66% | viability, T/C [35] 9.52% | viability, T/C [36] 5.39%

CC(C)n1c(=O)n(C)c2cnc3cc(F)c(-c4ccc(OCCCN5CCCCC5)nc4)cc3c21 + CN(C)c1ccc(Nc2c3ccc(NC(=O)CCN4CCCC4)cc3nc3cc(NC(=O)CCN4CCCC4)ccc23)cc1
2210 nM: IC50 (second compound 0.1 µM)
2410 nM: IC50 (second compound 0.0316 µM)
< 31.6 nM: IC50 (second compound 1 µM) | IC50 (second compound 3.16 µM) | IC50 (second compound 10 µM)
670 nM: IC50 (second compound 0.316 µM)
active: viability, T/C [12] 9.41% | viability, T/C [18] 4.16% | viability, T/C [23] 6.36% | viability, T/C [24] 1.3% | viability, T/C [25] 1.45% | viability, T/C [26] 1.78% | viability, T/C [27] 1.74% | viability, T/C [28] 1.06% | viability, T/C [29] 1.03% | viability, T/C [30] 0.15% | viability, T/C [31] 0.27% | viability, T/C [32] 0.4% | viability, T/C [33] 0.34% | viability, T/C [34] 0.37% | viability, T/C [35] 0.25% | viability, T/C [36] 0.28%
inactive: viability, T/C [1] 95.7% | viability, T/C [2] 100% | viability, T/C [3] 88.1% | viability, T/C [4] 80.4% | viability, T/C [5] 40.4% | viability, T/C [6] 12.9% | viability, T/C [7] 93% | viability, T/C [8] 108% | viability, T/C [9] 92% | viability, T/C [10] 84.9% | viability, T/C [11] 34.3% | viability, T/C [13] 82.2% | viability, T/C [14] 79.6% | viability, T/C [15] 69.3% | viability, T/C [16] 37.6% | viability, T/C [17] 20.3% | viability, T/C [19] 18.5% | viability, T/C [20] 16.8% | viability, T/C [21] 19.4% | viability, T/C [22] 8.58%

C#Cc1c(F)ccc2cc(O)cc(-c3ncc4c(N5CC6CCC(C5)N6)nc(OCC56CCCN5CC(F)C6)nc4c3F)c12 (stereo unspecified) + CN(C)c1ccc(Nc2c3ccc(NC(=O)CCN4CCCC4)cc3nc3cc(NC(=O)CCN4CCCC4)ccc23)cc1
active: viability, T/C [12] 8.76% | viability, T/C [17] 11.9% | viability, T/C [18] 0.81% | viability, T/C [19] 3.77% | viability, T/C [20] 3.04% | viability, T/C [21] 3.15% | viability, T/C [22] 1.14% | viability, T/C [23] 1% | viability, T/C [24] 0.07% | viability, T/C [25] 0.2% | viability, T/C [26] 0.29% | viability, T/C [27] 0.47% | viability, T/C [28] 0.22% | viability, T/C [29] 0.17% | viability, T/C [30] 0.1% | viability, T/C [31] 0.11% | viability, T/C [32] 0.1% | viability, T/C [33] 0.13% | viability, T/C [34] 0.26% | viability, T/C [35] 0.26% | viability, T/C [36] 0.13%
509 nM: IC50 (second compound 0.0316 µM)
inactive: viability, T/C [1] 91.8% | viability, T/C [2] 77.2% | viability, T/C [3] 53.9% | viability, T/C [4] 41.5% | viability, T/C [5] 25.2% | viability, T/C [6] 11.2% | viability, T/C [7] 87.8% | viability, T/C [8] 68.1% | viability, T/C [9] 52% | viability, T/C [10] 35% | viability, T/C [11] 23.7% | viability, T/C [13] 43.1% | viability, T/C [14] 33.4% | viability, T/C [15] 24.5% | viability, T/C [16] 15.3%
362 nM: IC50 (second compound 0.1 µM)
< 31.6 nM: IC50 (second compound 0.316 µM) | IC50 (second compound 1 µM) | IC50 (second compound 3.16 µM) | IC50 (second compound 10 µM)
